Measured values taken from patent US10294202B2, “Pyrrolidinones as herbicides” (FMC Corporation, priority 2013, dated 2019).

Tests used:
[1] = test system: barley, winter; assay: Test D pre-/postemergence herbicide test; type: in vivo, Hordeum vulgare; details: for Plant response rating: Barley, Winter, scale 0 to 100; for Plant response rating, Barley, Winter: scale 0 to 100 (0 no effect, 100 complete control)
Source text: (§1) Seeds of plant species selected from bluegrass (annual bluegrass, Poa annua), blackgrass (Alopecurus myosuroides), canarygrass (littleseed canarygrass, Phalaris minor), chickweed (common chickweed, Stellaria media), galium (catchweed bedstraw, Galium aparine), bromegrass, downy (downy bromegrass, Bromus tectorum), field poppy (Papaver rhoeas), field violet (Viola arvensis), foxtail, green (green foxtail, Setaria viridis), deadnettle (henbit deadnettle, Lamium amplexicaule), ryegrass, Italian (Italian ryegrass, Lolium multiflorum), kochia (Kochia scoparia), lambsquarters (Chenopodium album), oilseed rape (Brassica napus), pigweed (Amaranthus retroflexus), chamomile (scentless chamomile, Matricaria inodora), Russian thistle (Salsola kali), speedwell (bird's-eye speedwell, Veronica persica), barley, spring (spring barley, Hordeum vulgare), wheat, spring (spring wheat, Triticum aestivum), buckwheat, wild (wild buckwheat, Polygonum convolvulus), mustard, wild (wild mustard, Sinapis arvensis), oat, wild (wild oat, Avena fatua), radish, wild (wild radish, Raphanus raphanistrum), […]), barley, winter (winter barley, Hordeum vulgare), and wheat, winter (winter wheat, Triticum aestivum) were planted into a silt loam soil and treated preemergence with test chemicals formulated in a non-phytotoxic solvent mixture which included a surfactant. At the same time, these species were planted in pots containing Redi-Earth® planting medium (Scotts Company, 14111 Scottslawn Road, Marysville, Ohio 43041) comprising spaghnum peat moss, vermiculite, wetting agent and starter nutrients and treated with postemergence applications of the test chemicals formulated in the same manner. Plants ranged in height from 2 to 18 cm (1- to 4-leaf stage). Treated plants and controls were maintained in a controlled growth environment for 7 to 21 days after which time all species were compared to controls and visually evaluated. Plant response ratings, summarized in Table D, are based on a scale of 0 to 100 where 0 is no effect and 100 is complete control. A dash (-) response means no test result.

[2] = test system: barley, spring; assay: Test D pre-/postemergence herbicide test; type: in vivo, Hordeum vulgare; details: for Plant response rating: Barley, Spring, scale 0 to 100; for Plant response rating, Barley, Spring: scale 0 to 100 (0 no effect, 100 complete control)
Source text: as §1

[3] = test system: canarygrass; assay: Test C postemergence herbicide test; type: in vivo, Phalaris minor
Source text: (§2) At the same time, plants selected from these crop and weed species and also barley (winter barley, Hordeum vulgare), […]), chickweed (common chickweed, Stellaria media), deadnettle (henbit deadnettle, Lamium amplexicaule), and canarygrass (littleseed canarygrass, Phalaris minor) were planted in pots containing Redi-Earth® planting medium (Scotts Company, 14111 Scottslawn Road, Marysville, Ohio 43041) comprising spaghnum peat moss, vermiculite, wetting agent and starter nutrients and treated with postemergence applications of test chemicals formulated in the same manner. Plants ranged in height from 2 to 18 cm (1- to 4-leaf stage) for postemergence treatments. Treated plants and controls were maintained in a greenhouse for 13 to 15 days, after which time all species were compared to controls and visually evaluated. Plant response ratings, summarized in Table C, are based on a scale of 0 to 100 where 0 is no effect and 100 is complete control. A dash (-) response means no test result.

[4] = test system: barley (winter barley); assay: Test C postemergence herbicide test; type: in vivo, Hordeum vulgare
Source text: as §2

[5] = test system: windgrass; assay: Test C postemergence herbicide test; type: in vivo, Apera spica-venti
Source text: as §2

[6] = 16 g ai/ha, scale 0 to 100 (0 no effect, 100 complete control)
[7] = 31 g ai/ha, scale 0 (no effect) to 100 (complete control)
[8] = 62 g ai/ha, scale 0 to 100 (0 no effect, 100 complete control)
[9] = 125 g ai/ha, scale 0 to 100 (0 no effect, 100 complete control)
[10] = 250 g ai/ha, scale 0 to 100 (0 no effect, 100 complete control)

SMILES	Plant response rating ([1]; Postemergence, 31 g ai/ha)	Plant response rating ([1]; Postemergence, 62 g ai/ha)	Plant response rating ([1]; Postemergence, 125 g ai/ha)	Plant response rating ([1]; Postemergence, 250 g ai/ha)	Plant response rating, Barley, Winter ([1]; Preemergence, 62 g ai/ha)	Plant response rating, Barley, Winter ([1]; Preemergence, 31 g ai/ha)	Plant response rating ([1]; Preemergence, 125 g ai/ha)	Plant response rating ([1]; Preemergence, 250 g ai/ha)	Plant response rating ([2]; Postemergence, 31 g ai/ha)	Plant response rating ([2]; Postemergence, 62 g ai/ha)	Plant response rating ([2]; Postemergence, 125 g ai/ha)	Plant response rating ([2]; Postemergence, 250 g ai/ha)	Plant response rating, Barley, Spring ([2]; Preemergence, 62 g ai/ha)	Plant response rating, Barley, Spring ([2]; Preemergence, 31 g ai/ha)	Plant response rating ([2]; Preemergence, 125 g ai/ha)	Plant response rating ([2]; Preemergence, 250 g ai/ha)	Plant response rating, Canarygrass [3, 7]	Plant response rating, Canarygrass [3, 8]	Plant response rating, Canarygrass [3, 9]	Plant response rating, Barley [4, 7]	other results
O=C1NCC(c2ccc(F)c(F)c2)C1C(=O)Nc1ccccc1C(F)(F)F (racemic) [Compound 6]	0	0	0	0	0	0	0	20	0	0	0	0	0	0	0	10	–	–	–	–	Plant response rating ([1]; Postemergence, 16 g ai/ha): 0; Plant response rating, Barley, Winter ([1]; Preemergence, 16 g ai/ha): 0; Plant response rating ([2]; Postemergence, 16 g ai/ha): 0; Plant response rating, Barley, Spring ([2]; Preemergence, 16 g ai/ha): 0
O=C1NCC(c2ccc(F)c(C(F)(F)F)c2)C1C(=O)Nc1cccc(F)c1F (racemic) [Compound 77]	–	–	–	–	0	0	45	55	–	–	–	–	5	5	25	25	–	–	–	–	–
O=C1NCC(c2ccc(C(F)(F)F)cc2)C1C(=O)Nc1cccc(F)c1F (racemic) [Compound 202]	0	0	0	0	20	20	20	25	0	0	0	5	25	0	25	30	–	–	–	–	–
O=C1NCC(c2cc(F)c(F)c(F)c2)C1C(=O)Nc1cccc(F)c1F (stereo not drawn) [Compound 48]	–	–	–	–	–	–	–	–	–	–	–	–	–	–	–	–	0	0	0	0	Plant response rating, Canarygrass [3, 6]: 0; Plant response rating, Barley [4, 6]: 0; Plant response rating, Barley [4, 8]: 0; Plant response rating, Barley [4, 9]: 0; Plant response rating, Windgrass [5, 6]: 0; Plant response rating, Windgrass [5, 7]: 0; Plant response rating, Windgrass [5, 8]: 0; Plant response rating, Windgrass [5, 9]: 0
O=C1NCC(c2cc(F)c(F)cc2F)C1C(=O)Nc1cccc(F)c1F (stereo not drawn) [Compound 50]	0	0	0	–	0	0	0	–	0	0	0	–	0	0	0	–	0	0	0	0	Plant response rating, Canarygrass [3, 10]: 0; Plant response rating, Barley [4, 8]: 0; Plant response rating, Barley [4, 9]: 0; Plant response rating, Barley [4, 10]: 0; Plant response rating, Windgrass [5, 7]: 0; Plant response rating, Windgrass [5, 8]: 0; Plant response rating, Windgrass [5, 9]: 0; Plant response rating, Windgrass [5, 10]: 0; Plant response rating ([1]; Postemergence, 16 g ai/ha): 0; Plant response rating, Barley, Winter ([1]; Preemergence, 16 g ai/ha): 0; Plant response rating ([2]; Postemergence, 16 g ai/ha): 0; Plant response rating, Barley, Spring ([2]; Preemergence, 16 g ai/ha): 0
O=C1NCC(c2ccc(F)c(Cl)c2)C1C(=O)Nc1ccccc1F (stereo not drawn) [Compound 60]	–	–	–	–	–	–	–	–	–	–	–	–	–	–	–	–	0	0	0	0	Plant response rating, Barley [4, 8]: 0; Plant response rating, Barley [4, 9]: 20; Plant response rating, Windgrass [5, 7]: 0; Plant response rating, Windgrass [5, 8]: 0; Plant response rating, Windgrass [5, 9]: 0
O=C1NCC(c2ccc(C(F)(F)F)cc2)C1C(=O)Nc1cccc(F)c1F (stereo not drawn) [Compound 80, N-(2,3-difluorophenyl)-2-oxo-4-[4-(trifluoromethyl)phenyl]-3-pyrrolidinecarboxamide]	0	0	0	0	5	0	15	25	0	0	0	0	10	0	15	30	–	–	–	–	–
O=C1NC[C@H](c2cccc(C(F)(F)F)c2)[C@H]1C(=O)Nc1ccccc1F [Compound 204, (3R,4S)—N-(2-fluorophenyl)-2-oxo-4-[3-(trifluoromethyl)phenyl]-3-pyrrolidinecarboxamide]	–	–	–	–	20	0	–	35	–	–	–	–	15	0	–	45	–	–	–	–	Plant response rating, Barley, Winter ([1]; Preemergence, 125 g ai/ha): 25; Plant response rating, Barley, Spring ([2]; Preemergence, 125 g ai/ha): 20
O=C1NC[C@H](c2cccc(C(F)(F)F)c2)[C@H]1C(=O)Nc1cccc(F)c1F [Compound 206]	–	–	–	–	30	15	–	65	–	–	–	–	35	5	–	55	–	–	–	–	Plant response rating, Barley, Winter ([1]; Preemergence, 125 g ai/ha): 40; Plant response rating, Barley, Spring ([2]; Preemergence, 125 g ai/ha): 40
O=C1NCC(c2ccc(C(F)(F)F)cc2)C1C(=O)Nc1ccccc1F (stereo not drawn) [Compound 231]	0	0	0	0	0	0	–	20	0	0	0	0	5	0	–	35	–	–	–	–	Plant response rating, Barley, Winter ([1]; Preemergence, 125 g ai/ha): 0; Plant response rating, Barley, Spring ([2]; Preemergence, 125 g ai/ha): 5
